Measurements from ChEMBL document CHEMBL1156726, “Discovery of a potent and selective aurora kinase inhibitor” (Bioorg Med Chem Lett, 2008).
pEC50, pIC50: −log10 of the molar value. Each block holds one compound with its values, some of them ahead of it.

Tests used:
HCT-116 [1] = assay: Antiproliferative activity against human HCT116 cells assessed as BrdU incorporation; type: functional, cell-based
Aurora kinase B = Aurora kinase B (Homo sapiens, UniProt Q96GD4); assay: Inhibition of Aurora B by radiometric assay
Sequence of Aurora kinase B (Q96GD4 whole entry): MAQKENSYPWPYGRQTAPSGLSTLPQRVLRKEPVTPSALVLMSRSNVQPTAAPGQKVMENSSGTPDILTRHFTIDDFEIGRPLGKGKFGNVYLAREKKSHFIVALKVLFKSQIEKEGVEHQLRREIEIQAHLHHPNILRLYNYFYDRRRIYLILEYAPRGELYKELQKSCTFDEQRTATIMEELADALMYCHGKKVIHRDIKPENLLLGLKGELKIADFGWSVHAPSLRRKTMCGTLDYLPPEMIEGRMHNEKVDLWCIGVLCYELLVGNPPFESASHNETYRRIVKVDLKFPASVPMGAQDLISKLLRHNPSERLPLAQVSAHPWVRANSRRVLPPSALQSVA

Aurora kinase A = biological target: T1, Aurora kinase A (Homo sapiens, UniProt O14965)
T1 sequence (O14965 whole entry): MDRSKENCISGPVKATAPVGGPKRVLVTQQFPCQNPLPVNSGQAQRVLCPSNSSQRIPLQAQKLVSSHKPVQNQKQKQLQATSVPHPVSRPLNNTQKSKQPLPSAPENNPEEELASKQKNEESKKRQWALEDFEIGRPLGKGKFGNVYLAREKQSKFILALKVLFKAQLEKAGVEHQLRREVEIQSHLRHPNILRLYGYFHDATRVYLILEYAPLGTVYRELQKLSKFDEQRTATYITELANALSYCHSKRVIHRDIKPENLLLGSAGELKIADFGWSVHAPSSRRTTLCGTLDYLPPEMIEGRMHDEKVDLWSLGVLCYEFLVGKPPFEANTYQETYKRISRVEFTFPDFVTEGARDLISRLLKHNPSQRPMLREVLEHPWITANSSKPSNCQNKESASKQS
Description: Inhibition of Aurora A by radiometric assay

HCT-116 [2] = assay: Cell cycle arrest in human HCT116 cells assessed as accumulation of 4N DNA phase after 16 hrs by FACS; conditions: HCT-116, 16 h
Mus musculus [3] = assay: Decrease in histone H3 phosphorylation in human HCT116 cells xenografted mouse at 100 mg/kg, ip after 6 hrs; type: functional; conditions: HCT-116, ip, route intraperitoneal
Mus musculus [4] = assay: Decrease in histone H3 phosphorylation in human HCT116 cells xenografted mouse at 50 mg/kg, ip after 10 hrs; type: functional; conditions: HCT-116, ip, route intraperitoneal
Mus musculus [5] = assay: Decrease in histone H3 phosphorylation in human HCT116 cells xenografted mouse at 100 mg/kg, ip after 10 hrs; type: functional; conditions: HCT-116, ip, route intraperitoneal
HCT-116 [6] = assay: Decrease in histone H3 phosphorylation in human HCT116 cells after 16 hrs by Western blot; conditions: HCT-116, 16 h
[7] = Drug level in HCT116 xenografted mouse tumor at 50 mg/kg, ip after 6 hrs; type: ADME, organism-based, Neoplasm; set-up: dose 50 mg/kg, route intraperitoneal; conditions: human, tumor (HCT116 xenograft), read-out: Drug uptake
Mus musculus [8] = assay: Decrease in histone H3 phosphorylation in human HCT116 cells xenografted mouse at 50 mg/kg, ip after 6 hrs; type: functional; conditions: HCT-116, ip, route intraperitoneal
[9] = Drug level in HCT116 xenografted mouse tumor at 100 mg/kg, ip after 6 hrs; type: ADME, organism-based, Neoplasm; set-up: dose 100 mg/kg, route intraperitoneal; conditions: human, tumor (HCT116 xenograft), read-out: Drug uptake
[10] = Drug level in HCT116 xenografted mouse tumor at 50 mg/kg, ip after 10 hrs; type: ADME, organism-based, Neoplasm; set-up: dose 50 mg/kg, route intraperitoneal; conditions: human, tumor (HCT116 xenograft), read-out: Drug uptake
[11] = Drug level in HCT116 xenografted mouse tumor at 100 mg/kg, ip after 10 hrs; type: ADME, organism-based, Neoplasm; set-up: dose 100 mg/kg, route intraperitoneal; conditions: human, tumor (HCT116 xenograft), read-out: Drug uptake
HCT-116 [12] = assay: Antitumor activity against human HCT116 cells xenografted in mouse at 100 mg/kg, ip administered twice weekly for 3 weeks; type: functional; conditions: HCT-116, ip, 504 h, route intraperitoneal, read-out: TGI

SMILES: O=C(Nc1ncc(CCNc2ncnc3ccsc23)s1)Nc1cccc2cc[nH]c12
- inhibition in vivo at 100 mg/kg (Mus musculus [3]): 75%
- inhibition in vivo at 50 mg/kg (Mus musculus [4]): 75%
- inhibition in vivo at 100 mg/kg (Mus musculus [5]): 75%
- pEC50 (HCT-116 [1]): 7.51
- pIC50 (Aurora kinase B): 7.72
- pEC50 (HCT-116 [6]): 7.80
- concentration at 6 h [7]: 4.82 µM
- inhibition in vivo at 50 mg/kg (Mus musculus [8]): 75%
- concentration at 6 h [9]: 16.9 µM
- concentration at 10 h [10]: 3.67 µM
- pEC50 (HCT-116 [2]): 7.80
- pIC50 (Aurora kinase A): 7.52
- concentration at 10 h [11]: 4.36 µM

SMILES: O=C(Nc1cccc(CCN2CCC2)c1)Nc1ncc(CCNc2ncnc3ccsc23)s1
- inhibition in vivo at 50 mg/kg (Mus musculus [4]): 0%
- pEC50 (HCT-116 [1]): 6.92
- pIC50 (Aurora kinase B): 6.92
- pEC50 (HCT-116 [6]): 7.20
- concentration at 6 h [7]: < 1 µM
- inhibition in vivo at 50 mg/kg (Mus musculus [8]): 0%
- concentration at 10 h [10]: < 1 µM
- pEC50 (HCT-116 [2]): 7.80
- pIC50 (Aurora kinase A): 7.28

SMILES: O=C(Nc1ncc(CCNc2ncnc3ccsc23)s1)Nc1ccccc1Cl
- pEC50 (HCT-116 [1]): 6.42
- pEC50 (HCT-116 [2]): < 6.60
- pIC50 (Aurora kinase A): 6.55

SMILES: O=C(Nc1ccc(F)c(Cl)c1)Nc1ncc(CCNc2ncnc3ccsc23)s1
- inhibition in vivo at 100 mg/kg (Mus musculus [3]): 75%
- inhibition in vivo at 50 mg/kg (Mus musculus [4]): 25%
- inhibition in vivo at 100 mg/kg (Mus musculus [5]): 50%
- pEC50 (HCT-116 [1]): 8.30
- pIC50 (Aurora kinase B): 7.29
- pEC50 (HCT-116 [6]): > 7.80
- concentration at 6 h [7]: 25.8 µM
- inhibition in vivo at 50 mg/kg (Mus musculus [8]): 75%
- concentration at 6 h [9]: 112 µM
- concentration at 10 h [10]: 15.6 µM
- pEC50 (HCT-116 [2]): > 7.80
- pIC50 (Aurora kinase A): 7.96
- concentration at 10 h [11]: 56.1 µM

SMILES: O=C(Nc1cc(CN2CCCC2)cc(C(F)(F)F)c1)Nc1ncc(CCNc2ncnc3ccsc23)s1
- inhibition in vivo at 100 mg/kg (Mus musculus [3]): 50%
- inhibition in vivo at 50 mg/kg (Mus musculus [4]): 0%
- inhibition in vivo at 100 mg/kg (Mus musculus [5]): 25%
- pEC50 (HCT-116 [1]): 8.22
- pIC50 (Aurora kinase B): 7.66
- pEC50 (HCT-116 [6]): 7.80
- inhibition in vivo at 50 mg/kg (Mus musculus [8]): 25%
- concentration at 6 h [9]: 6.2 µM
- pEC50 (HCT-116 [2]): > 7.80
- pIC50 (Aurora kinase A): 8.40
- concentration at 10 h [11]: 8.76 µM

SMILES: O=C(Nc1ccccc1)Nc1ncc(CCNc2ncnc3ccsc23)s1
- pIC50 (Aurora kinase B): 6.92
- pIC50 (Aurora kinase A): 7.28

SMILES: CN(C(=O)Nc1ncc(CCNc2ncnc3ccsc23)s1)c1ccccc1
- pIC50 (HCT-116 [1]): < 5.00
- pIC50 (Aurora kinase A): 5.14

SMILES: O=C(Nc1ncc(CCNc2ncnc3ccsc23)s1)NC1CCCCC1
- pEC50 (HCT-116 [1]): 7.14
- pIC50 (Aurora kinase B): 7.21
- pEC50 (HCT-116 [2]): 7.20
- pIC50 (Aurora kinase A): 6.57

SMILES: O=C(Nc1ccc(Cl)c(Cl)c1)Nc1ncc(CCNc2ncnc3ccsc23)s1
- inhibition in vivo at 100 mg/kg (Mus musculus [3]): 25%
- inhibition in vivo at 50 mg/kg (Mus musculus [4]): 0%
- inhibition in vivo at 100 mg/kg (Mus musculus [5]): 25%
- pEC50 (HCT-116 [1]): 7.62
- pIC50 (Aurora kinase B): 7.89
- pEC50 (HCT-116 [6]): 7.80
- concentration at 6 h [7]: 21.3 µM
- inhibition in vivo at 50 mg/kg (Mus musculus [8]): 0%
- concentration at 6 h [9]: 49.5 µM
- concentration at 10 h [10]: 12.5 µM
- pEC50 (HCT-116 [2]): 7.80
- pIC50 (Aurora kinase A): 7.02
- concentration at 10 h [11]: 54.8 µM

SMILES: CS(=O)(=O)O.O=C(Nc1cccc(Cl)c1)Nc1ncc(CCNc2ncnc3ccsc23)s1 [SNS-314 MESYLATE]
- inhibition in vivo at 100 mg/kg (Mus musculus [3]): 75%
- inhibition in vivo at 50 mg/kg (Mus musculus [4]): 50%
- inhibition in vivo at 100 mg/kg (Mus musculus [5]): 75%
- pEC50 (HCT-116 [6]): > 7.80
- concentration at 6 h [7]: 9.07 µM
- inhibition in vivo at 50 mg/kg (Mus musculus [8]): 75%
- concentration at 6 h [9]: 28.6 µM
- concentration at 10 h [10]: 3.72 µM
- pEC50 (HCT-116 [2]): > 7.80
- concentration at 10 h [11]: 31.6 µM
- inhibition in vivo at 100 mg/kg (HCT-116 [12]): 96%

SMILES: O=C(Nc1ccc(Cl)cc1)Nc1ncc(CCNc2ncnc3ccsc23)s1
- pEC50 (HCT-116 [1]): 7.52
- pEC50 (HCT-116 [2]): 7.80
- pIC50 (Aurora kinase A): 7.41

Second part, led by results:

- pIC50 (HCT-116 [1]): < 5.00
- pIC50 (Aurora kinase B): 6.24
- pIC50 (Aurora kinase A): < 5.00
SMILES: O=C(Cc1cccc(C(F)(F)F)c1)Nc1ncc(CCNc2ncnc3ccsc23)s1

- pEC50 (HCT-116 [2]): 6.00
- pIC50 (Aurora kinase A): 5.60
SMILES: O=C(Nc1ncc(CCNc2ncnc3ccsc23)s1)c1cccc(C(F)(F)F)c1

- pIC50 (Aurora kinase B): 6.35
- pIC50 (Aurora kinase A): 5.31
SMILES: O=C(Cc1ncc(CCNc2ncnc3ccsc23)s1)Nc1cccc(C(F)(F)F)c1

- pEC50 (HCT-116 [1]): 7.85
- pEC50 (HCT-116 [2]): > 7.80
- pIC50 (Aurora kinase A): 7.39
SMILES: C#Cc1cccc(NC(=O)Nc2ncc(CCNc3ncnc4ccsc34)s2)c1

- pIC50 (Aurora kinase A): < 4.70
SMILES: O=C(Nc1cccc(CCNc2ncnc3ccsc23)c1)Nc1cccc(C(F)(F)F)c1

- pEC50 (HCT-116 [1]): 7.47
- pEC50 (HCT-116 [2]): 7.80
- pIC50 (Aurora kinase A): 7.30
SMILES: COc1cccc(NC(=O)Nc2ncc(CCNc3ncnc4ccsc34)s2)c1

- pEC50 (HCT-116 [1]): 8.22
- pIC50 (Aurora kinase B): 7.74
- pEC50 (HCT-116 [6]): > 7.80
- concentration at 6 h [7]: 1.2 µM
- concentration at 6 h [9]: 101 µM
- concentration at 10 h [10]: < 1 µM
- pEC50 (HCT-116 [2]): > 7.80
- pIC50 (Aurora kinase A): 7.64
- concentration at 10 h [11]: 19.8 µM
SMILES: O=C(Nc1cccc(F)c1)Nc1ncc(CCNc2ncnc3ccsc23)s1
- inhibition in vivo at 100 mg/kg (Mus musculus [3]): 75%
- inhibition in vivo at 50 mg/kg (Mus musculus [4]): 0%
- inhibition in vivo at 100 mg/kg (Mus musculus [5]): 25%
- inhibition in vivo at 50 mg/kg (Mus musculus [8]): 25%

- pEC50 (HCT-116 [1]): 7.72
- pIC50 (Aurora kinase B): 7.27
- pEC50 (HCT-116 [2]): > 7.80
- pIC50 (Aurora kinase A): 8.05
SMILES: Cc1cccc(NC(=O)Nc2ncc(CCNc3ncnc4ccsc34)s2)c1

- pIC50 (Aurora kinase B): 7.85
- pEC50 (HCT-116 [6]): > 7.80
- pEC50 (HCT-116 [2]): > 7.80
SMILES: O=C(Nc1cccc(C(F)(F)F)c1)Nc1ncc(CCNc2ncnc3ccsc23)s1
- inhibition in vivo at 100 mg/kg (Mus musculus [3]): 75%
- inhibition in vivo at 50 mg/kg (Mus musculus [4]): 50%
- inhibition in vivo at 100 mg/kg (Mus musculus [5]): 75%
- inhibition in vivo at 50 mg/kg (Mus musculus [8]): 75%

- pIC50 (Aurora kinase A): < 4.70
SMILES: O=C(Nc1cccc(C(F)(F)F)c1)c1ccc(CCNc2ncnc3ccsc23)cc1

- pIC50 (Aurora kinase A): < 4.70
SMILES: O=C(Nc1cccc(C(F)(F)F)c1)Nc1nc(CCNc2ncnc3ccsc23)cs1

- pIC50 (Aurora kinase A): 5.49
SMILES: O=C(Nc1ccc(CCNc2ncnc3ccsc23)cc1)c1cccc(C(F)(F)F)c1

- pIC50 (Aurora kinase A): 5.92
SMILES: O=C(Nc1cccc(C(F)(F)F)c1)Nc1cn(CCNc2ncnc3ccsc23)cn1

- pIC50 (Aurora kinase A): 6.60
SMILES: O=C(Nc1cccc(C(F)(F)F)c1)Nc1cn(CCNc2ncnc3ccsc23)nn1

- pIC50 (Aurora kinase A): 5.92
SMILES: O=C(Nc1ccc(CCNc2ncnc3ccsc23)cc1)Nc1cccc(C(F)(F)F)c1
